# Patent US11076595B2, “1-(n,n-disubstituted carbamoyl) 4-(substituted sulfonyl)triazolin-5-one derivative, 4-(n,n-disubstituted carbamoyl) 1-(substituted sulfonyl)triazolin-5-one derivative, and herbicide containing said derivative as active ingredient” (HOKKO CHEMICAL INDUSTRY CO., LTD., priority 2017, dated 2021)
# Experiments:
# Format in all cases: in vivo
# Echinochloa crus-galli [1] = experiment: Test Example 1: herbicidal effect test by soil treatment in paddy field; details: 120 g/10a, paddy soil treatment just after sowing, 14 days after treatment
# Method in brief: (§1)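 Emulsifiable-concentrate formulation, water-diluted, dosed onto flooded paddy pots at 120 g a.i./10 are directly after sowing. Readout: % suppression by dry weight relative to untreated, 14 d, duplicate plots.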
# Lindernia pyxidaria [2] = experiment: as above; details: 120 g/10a, paddy soil treatment just after sowing, 14 days after treatment
# Method in brief: as §1
# Monochoria vaginalis [3] = experiment: as above; details: 120 g/10a, paddy soil treatment just after sowing, 14 days after treatment
# Method in brief: as §1
# Scirpus juncoides [4] = experiment: as above; details: 120 g/10a, paddy soil treatment just after sowing, 14 days after treatment
# Method in brief: as §1
# Echinochloa crus-galli [5] = experiment: Test Example 2: herbicidal effect test by treatment during growing period in paddy field; details: treatment 7 days after sowing, 120 g/10a, evaluated 14 days after treatment
# Method in brief: (§2)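 Paddy soil in Wagner pots, flooded to ~3 cm; 30 seeds per species sown 0–1 cm deep, greenhouse-grown. Emulsifiable concentrate diluted in water and dripped into flood water 7 days after sowing at 120 g active ingredient per 10 are. Dry-weight suppression vs untreated assessed 14 days post-treatment, two replicates.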
# Lindernia pyxidaria [6] = experiment: as above; details: treatment 7 days after sowing, 120 g/10a, evaluated 14 days after treatment
# Method in brief: as §2
# Monochoria vaginalis [7] = experiment: as above; details: treatment 7 days after sowing, 120 g/10a, evaluated 14 days after treatment
# Method in brief: as §2
# Scirpus juncoides [8] = experiment: as above; details: treatment 7 days after sowing, 120 g/10a, evaluated 14 days after treatment
# Method in brief: as §2
# Amaranthus viridis [9] = experiment: Test Example 3: herbicidal effect test by soil treatment in upland field; details: upland field soil treatment 1 day after sowing; 120 g/10a; evaluated 14 days after treatment
# Description: (§3) This test was performed with two replications per one formulation concentration plot, and 14 days after the formulation treatments, the weed suppression rate (%) was determined according to the following equation (Math. 1). Weed suppression rate (%)=(1−an average dry weight (g) of plants in treated plots/an average dry weight (g) of plants in untreated plots)×100 [Math. 1]
# (§4) A pot having a size of 36 cm^2 was filled with field soil (alluvial soil) and after uniformly mixing the soil of the surface layer of 1 cm with 20 grains of each weed seed of crabgrass, Echinochloa crus-galli, Chenopodium album and Amaranthus viridis, the surface layer was pressed lightly. One day after the sowing, an emulsifiable concentrate prepared according to Formulation Example 5 by using the compound shown in Table 7 below was diluted with water, and the water-diluted formulation was sprayed on the soil surface at a ratio of 100 liter per 10 are. The application rate of the active ingredient, by conversion, corresponded to 120 g per 10 are. Fourteen days after the formulation treatment, the herbicidal effect was evaluated by the same criteria as in Test Example 1.
# Chenopodium album [10] = experiment: as above; details: upland field soil treatment 1 day after sowing; 120 g/10a; evaluated 14 days after treatment
# Description: as §3, §4
# Echinochloa crus-galli [11] = experiment: as above; details: upland field soil treatment 1 day after sowing; 120 g/10a; evaluated 14 days after treatment
# Description: as §3, §4
# crabgrass [12] = experiment: as above; details: upland field soil treatment 1 day after sowing; 120 g/10a; evaluated 14 days after treatment
# Description: as §3, §4
# Amaranthus viridis [13] = experiment: Test Example 4: herbicidal effect test by foliage treatment in upland field; details: upland field foliage treatment 7 days after sowing; 120 g/10a; evaluated 14 days after treatment
# Description: as §3
# as §4, with “Seven days” for “One day”, “8” for “7”
# Chenopodium album [14] = experiment: as above; details: upland field foliage treatment 7 days after sowing; 120 g/10a; evaluated 14 days after treatment
# Description: as §3
# as §4, with “Seven days” for “One day”, “8” for “7”
# Echinochloa crus-galli [15] = experiment: as above; details: upland field foliage treatment 7 days after sowing; 120 g/10a; evaluated 14 days after treatment
# Description: as §3
# as §4, with “Seven days” for “One day”, “8” for “7”
# crabgrass [16] = experiment: as above; details: upland field foliage treatment 7 days after sowing; 120 g/10a; evaluated 14 days after treatment
# Description: as §3
# as §4, with “Seven days” for “One day”, “8” for “7”
Structure (SMILES),"weed suppression rate, Echinochloa crus-galli (Echinochloa crus-galli [1]) [%]","weed suppression rate, Lindemia pyxidaria (Lindernia pyxidaria [2]) [%]","weed suppression rate, Monochoria vaginalis (Monochoria vaginalis [3]) [%]","weed suppression rate, Scirpus juncoides (Scirpus juncoides [4]) [%]","weed suppression rate, Echinochloa crus-galli (Echinochloa crus-galli [5]) [%]","weed suppression rate, Lindemia pyxidaria (Lindernia pyxidaria [6]) [%]","weed suppression rate, Monochoria vaginalis (Monochoria vaginalis [7]) [%]","weed suppression rate, Scirpus juncoides (Scirpus juncoides [8]) [%]","herbicidal effect (weed suppression rate), Amaranthus viridis (Amaranthus viridis [9]) [%]","herbicidal effect (weed suppression rate), Chenopodium album (Chenopodium album [10]) [%]","herbicidal effect (weed suppression rate), Echinochloa crus-galli (Echinochloa crus-galli [11]) [%]","herbicidal effect (weed suppression rate), Crabgrass (crabgrass [12]) [%]","herbicidal effect (weed suppression rate), Amaranthus viridis (Amaranthus viridis [13]) [%]","herbicidal effect (weed suppression rate), Chenopodium album (Chenopodium album [14]) [%]","herbicidal effect (weed suppression rate), Echinochloa crus-galli (Echinochloa crus-galli [15]) [%]","herbicidal effect (weed suppression rate), Crabgrass (crabgrass [16]) [%]"
CC(C)N(C(=O)n1ncn(S(=O)(=O)C2CCCCC2)c1=O)c1ccc(F)cc1F [Compound 1-306],100,100,100,100,100,100,100,90,90,80,80,90,,,,
CCN(C)S(=O)(=O)n1cnn(C(=O)N(c2ccc(F)cc2F)C(C)C)c1=O [Compound 1-1139],100,90,90,90,90,80,80,90,90,80,80,90,,,,
Cc1ccc(N(C(=O)n2ncn(S(=O)(=O)C3CC3)c2=O)C(C)C)c(F)c1 [Compound 1-221],90,90,90,90,90,80,80,90,90,80,80,90,,,,
CC(C)CN(C)S(=O)(=O)n1cnn(C(=O)N(c2ccc(F)cc2F)C(C)C)c1=O [Compound 1-1142],100,80,80,80,90,80,80,90,90,80,80,90,,,,
CC(C)N(C(=O)n1ncn(S(=O)(=O)C2CCCCC2)c1=O)c1ccc(F)c(F)c1F [Compound 1-309],100,100,100,100,100,80,100,100,,,,,0,80,100,100
CCN(CC)S(=O)(=O)n1cnn(C(=O)N(c2ccc(F)cc2F)C(C)C)c1=O [Compound 1-1140],90,80,80,90,,,,,90,80,80,90,,,,
CC(C)N(C(=O)n1ncn(S(=O)(=O)N2CCCCC2)c1=O)c1ccc(F)cc1F [Compound 1-1143],90,80,80,90,90,80,80,90,90,80,80,90,,,,
CC(C)N(C(=O)n1ncn(S(=O)(=O)C(C)C)c1=O)c1ccc(F)nc1 [Compound 1-242],,,,,,,,,90,80,80,90,,,,
Cc1cc(F)ccc1N(C(=O)n1ncn(S(=O)(=O)C2CCCCC2)c1=O)C(C)C [Compound 1-319],100,80,80,100,100,80,90,80,,,,,70,70,70,80
CC(C)N(C(=O)n1ncn(S(=O)(=O)C2CC2)c1=O)c1ccc(C(F)(F)F)cc1Cl [Compound 1-229],90,80,80,90,90,80,80,90,90,80,80,90,,,,
CC(C)N(C(=O)n1ncn(S(=O)(=O)C2CC2)c1=O)c1c(F)c(F)cc(F)c1F [Compound 1-206],100,100,90,100,100,80,90,100,,,,,80,60,100,100
CC(C)N(C(=O)n1ncn(S(=O)(=O)C2CC2)c1=O)c1cccc(F)c1 [Compound 1-170],90,100,90,90,100,90,90,90,,,,,90,80,80,90
